# Experimental data reported in patent US10272182B2, “Copolymer membrane for high-dose chemotherapy delivery during transarterial chemoembolization” (THE REGENTS OF THE UNIVERSITY OF CALIFORNIA, priority 2014, dated 2019).
# Test: Hepatic artery IAC infusion of dox in swine without CF device
# Assay type: in vivo
# Settings: 50 mg dox (2 mg/mL) into the liver via hepatic artery over 10 minutes
# Procedure: In vivo pilot experiments on swine were performed to establish an animal model and proof-of-concept for toxicity reduction. Farm swine (n=3, 30 kg) received humane care in compliance with the UCSF IACUC. Interventional procedures included anesthesia (Isoflurane), X-ray fluoroscopy, percutaneous transarterial catheterization of the hepatic artery, and percutaneous transveous catheterization of the vena cava. Heparin was […] in order to prevent thrombus formation. Heart rate, electrocardiogram, and O2-saturation were continuously monitored during the interventions. Animals were euthanized immediately after the procedures.
# In the second animal, a CF device was not deployed, but rather a hepatic artery IAC infusion of dox was performed with subsequent sampling of blood at various times and positions throughout the venous system. This was performed in order to validate a hepatic dox IAC pharmacokinetic experimental model, measuring venous dox concentrations over time via a developed liquid chromatography-mass spectroscopy assay (Pacific Biolabs, Hercules, Calif.). In this animal, a microcatheter was advanced into the hepatic artery via standard access from a right femoral artery approach using fluoroscopy and contrast as needed. Via percutaneous UV access, central catheters were positioned with tips in the suprahepatic IVC and right hepatic vein. […]
smiles,measurement,value
"COc1cccc2c1C(=O)c1c(O)c3c(c(O)c1C2=O)C[C@@](O)(C(=O)CO)C[C@@H]3O[C@H]1C[C@H](N)[C@H](O)[C@H](C)O1 [dox, doxorubicin]",hemodynamic changes during the procedure,no hemodynamic changes
